# Measurements: patent US20220087990A1, “APPLICATION OF RIFAMYCIN-QUINOLIZIDONE CONJUGATE MOLECULE AND PHARMACEUTICALLY ACCEPTABLE SALT THEREOF” (priority 2019, published 2022)
# “Also recorded” adds a separate entry of the source. Where two headings read alike, the source gives them in different places.
# What was measured:
# Assay type in all cases: cell-based
# [1] = system: Staphylococcus aureus ATCC 29213; assay: MIC measured by agar dilution method, quality control strain; settings: strain 100, MSSA QC strain
# Protocol: (§1) Spontaneous mutation and minimal inhibit concentration (MIC) tested by agar dilution method, the above compounds are respectively prepared into a stock solution (100X) with a concentration 100 times the highest final concentration in corresponding solvents and used on the same day. Before use, I is further diluted with DMSO; and oxacillin, rifampicin and levofloxacin are further diluted with water.
# (§2) Bacterial isolates: Staphylococcus aureus isolates are retrieved from the −80° C. storage room of Micromyx Culture Collection, thawed, plated onto Tryptic Soy Agar+5% sheep blood (Remel; Lenexa, Kans.), and then incubated aerobically at 35° C. overnight. S. aureus ATCC 29213 (MRSA; MMX 0100) was included during testing only for the purpose of quality control. Test Media: The isolates were tested in both the agar dilution MIC assay and the spontaneous mutation assay using Mueller-Hinton Agar (MHA; BD/BBL; Lot No. 6229829 & 4216798). Inocula of each isolate were suspended in cation-adjusted Mueller-Hinton Broth (CAMHB) (BD/BBL; Lot Nos. 5257869 & 6258541). Sodium chloride (Sigma-Aldrich; Lot No. SLBL0434V) was added to CAMHB at a final concentration of 2% when testing oxacillin. Dilutions of bacterial cell suspensions for the purpose of performing colony counts were also made in CAMHB.
# (§3) MIC measured by agar dilution method: according to the recommendation from the Clinical and Laboratory Standards Institute (CLSI), the MIC value is measured by the agar dilution method. […] Each test agent was combined with molten MHA agar (50-55° C.) at a ratio of 0.2 mL of 100× test agent to 19.8 mL agar in a sterile tube, mixed gently, and then poured into a sterile petri plate (BD Falcon). Plates were allowed to solidify at room temperature. A 0.5 McFarland standard bacterial suspension was prepared, diluted 1:10 in CAMHB, and transferred to the wells of a stainless steel replicator block before stamping onto plates containing drug, resulting in 10^4 CFU/spot. After allowing the inoculum to dry on the surface of the agar, the plates were inverted, incubated aerobically at 35° C. for 20-24 hr, and inspected for growth.
# In parallel experiments, a standard bacterium suspension with a […] turbidity of 0.5 is prepared as a standard inoculum for agar dilution analysis (10^4 CFU/point). […] In this step, the broths and drugs used in the spontaneous mutation analysis are used to confirm that the concentration of the drug stock solution can inhibit the growth of the standard inoculum. The quality of the levofloxacin stock solution is controlled by a standard inoculum and levofloxacin of 8-0.008 μg/mL, and separate agar dilution analysis is performed. […]
# [2] = system: Staphylococcus aureus MMX 3265, 3270, 3278, and 6312; settings: for Cell counts (mean): 1 used if no colonies
# Protocol: Each test agent stock solution was prepared at 100× the final desired test concentration for the spontaneous mutation frequency assay agar plates.
# The drug/agar mixture was dispensed into sterile 150×15 mm plates (BD Falcon) to a volume of 50 mL in each plate. The target inoculum for each spontaneous mutation plate was at least 10^9 CFU. Plates were allowed to solidify at room temperature.
# The inocula for the spontaneous mutation frequency assay were prepared by using sterile cotton swabs to harvest colonies from freshly grown isolates and preparing a dense cell suspension (approximately 1.70 on the turbidity meter) in 6 mL of CAMHB. The viable count of this suspension was determined by plating serial ten-fold dilutions onto MHA and taking the average of duplicate counts. For the spontaneous mutation assay, 0.25 mL of inoculum was spread onto the surface of duplicate 150×15 mm plates for each drug concentration tested, allowed to dry, and then the plates were inverted and incubated at 35° C. for 48 hr prior to counting viable colonies. The spontaneous mutation frequency was calculated using the following equation:
# Spontaneous mutation frequency=average number of colonies on selected plates/total number of cells incubated onto each plate
# If there were no colonies on the antibiotic selection plates, the spontaneous mutation frequency was reported as less than or equal to the mutation frequency that would have resulted from the presence of one colony (e.g. 1/total number of cells inoculated onto the plate).
# [3] = system: Staphylococcus aureus ATCC 29213; assay: MIC measured by fluid broth microdilution method (quality control); settings: ATCC29213
# [4] = system: methicillin-resistant Staphylococcus aureus (MRSA) isolates; assay: MIC measured by agar dilution method (CLSI); settings: Staphylococcus aureus, MRSA, agar dilution
# Protocol: as §1, §2, §3
# [5] = isolate 3265 LEV^R RIF^S, drug 0.5 μg/mL in plates (combination 0.5 each), inoculation 5.40E+09 CFU
# [6] = isolate 3265 LEV^R RIF^S, drug 2 μg/mL in plates (combination 2 each), inoculation 5.40E+09 CFU
# [7] = isolate 3265 LEV^R RIF^S, drug 8 μg/mL in plates (combination 8 each), inoculation 5.40E+09 CFU
# [8] = isolate 3270 LEV^R RIF^S, drug 0.5 μg/mL in plates (combination 0.5 each), inoculation 5.30E+09 CFU
# [9] = isolate 3270 LEV^R RIF^S, drug 2 μg/mL in plates (combination 2 each), inoculation 5.30E+09 CFU
# [10] = isolate 3270 LEV^R RIF^S, drug 8 μg/mL in plates (combination 8 each), inoculation 5.30E+09 CFU
# [11] = isolate 3278 LEV^S RIF^S, drug 0.5 μg/mL in plates (combination 0.5 each), inoculation 3.80E+09 CFU
# [12] = isolate 3278 LEV^S RIF^S, drug 2 μg/mL in plates (combination 2 each), inoculation 3.80E+09 CFU
# [13] = isolate 3278 LEV^S RIF^S, drug 8 μg/mL in plates (combination 8 each), inoculation 3.80E+09 CFU
# [14] = isolate 6312 LEV^R RIF^S, drug 0.5 μg/mL in plates (combination 0.5 each), inoculation 3.90E+09 CFU
# [15] = isolate 6312 LEV^R RIF^S, drug 2 μg/mL in plates (combination 2 each), inoculation 3.90E+09 CFU
# [16] = isolate 6312 LEV^R RIF^S, drug 8 μg/mL in plates (combination 8 each), inoculation 3.90E+09 CFU
smiles,measurement,setting,value
CO[C@H]1/C=C/O[C@@]2(C)Oc3c(C)c(O)c4c(O)c(c(/C=N/N5CCC(N(C)C6([C@@H]7CCN(c8c(F)cn9c(=O)c(C(=O)O)cc(C%10CC%10)c9c8C)C7)CC6)CC5)c(O)c4c3C2=O)NC(=O)/C(C)=C\C=C\[C@H](C)[C@H](O)[C@@H](C)[C@@H](O)[C@@H](C)[C@H](OC(C)=O)[C@@H]1C [I],MIC,[1],0.015 µg/mL
same,spontaneous mutants / development of drug resistance (in words),"[2]; four MRSA isolates, 0.5, 2 or 8 μg/mL",No spontaneous mutants are recovered; also recorded: none of the four MRSA strains under test develops drug resistance
same,Cell counts (mean),"[2]; isolate 3265, drug 0.5 μg/mL",1^1
same,Cell counts (mean),"[2]; isolate 3265, drug 2 μg/mL",1
same,Cell counts (mean),"[2]; isolate 3265, drug 8 μg/mL",1
same,Cell counts plate A,[2]; [5],0
same,Cell counts plate B,[2]; [5],0
same,Mutation frequency,[2]; [5],<1.85E−10
same,Cell counts plate A,[2]; [6],0
same,Cell counts plate B,[2]; [6],0
same,Mutation frequency,[2]; [6],<1.85E−10
same,Cell counts plate A,[2]; [7],0
same,Cell counts plate B,[2]; [7],0
same,Mutation frequency,[2]; [7],<1.85E−10
same,Cell counts (mean),"[2]; isolate 3270, drug 0.5 μg/mL",1
same,Cell counts (mean),"[2]; isolate 3270, drug 2 μg/mL",1
same,Cell counts (mean),"[2]; isolate 3270, drug 8 μg/mL",1
same,Cell counts plate A,[2]; [8],0
same,Cell counts plate B,[2]; [8],0
same,Mutation frequency,[2]; [8],<1.89E−10
same,Cell counts plate A,[2]; [9],0
same,Cell counts plate B,[2]; [9],0
same,Mutation frequency,[2]; [9],<1.89E−10
same,Cell counts plate A,[2]; [10],0
same,Cell counts plate B,[2]; [10],0
same,Mutation frequency,[2]; [10],<1.89E−10
same,Cell counts (mean),"[2]; isolate 3278, drug 0.5 μg/mL",1
same,Cell counts (mean),"[2]; isolate 3278, drug 2 μg/mL",1
same,Cell counts (mean),"[2]; isolate 3278, drug 8 μg/mL",1
same,Cell counts plate A,[2]; [11],0
same,Cell counts plate B,[2]; [11],0
same,Mutation frequency,[2]; [11],<2.63E−10
same,Cell counts plate A,[2]; [12],0
same,Cell counts plate B,[2]; [12],0
same,Mutation frequency,[2]; [12],<2.63E−10
same,Cell counts plate A,[2]; [13],0
same,Cell counts plate B,[2]; [13],0
same,Mutation frequency,[2]; [13],<2.63E−10
same,Cell counts (mean),"[2]; isolate 6312, drug 0.5 μg/mL",1
same,Cell counts (mean),"[2]; isolate 6312, drug 2 μg/mL",1
same,Cell counts (mean),"[2]; isolate 6312, drug 8 μg/mL",1
same,Cell counts plate A,[2]; [14],0
same,Cell counts plate B,[2]; [14],0
same,Mutation frequency,[2]; [14],<2.56E−10
same,Cell counts plate A,[2]; [15],0
same,Cell counts plate B,[2]; [15],0
same,Mutation frequency,[2]; [15],<2.56E−10
same,Cell counts plate A,[2]; [16],0
same,Cell counts plate B,[2]; [16],0
same,Mutation frequency,[2]; [16],<2.56E−10
same,MIC,[3],0.25 µg/mL
same,MIC,"[4]; read-out: MIC over all strains under test, 23 MRSA isolates",0.015 µg/mL
same,MIC,"[4]; strain 3085, LEV^S RIF^S",0.015 µg/mL
same,MIC,"[4]; strain 3090, LEV^R RIF^S",0.015 µg/mL
same,MIC,"[4]; strain 3094, LEV^R RIF^S",0.015 µg/mL
same,MIC,"[4]; strain 3098, LEV^S RIF^S",0.015 µg/mL
same,MIC,"[4]; strain 3265, LEV^R RIF^S",0.015 µg/mL
same,MIC,"[4]; strain 3266, LEVR RIFS",0.015 µg/mL
same,MIC,"[4]; strain 3270, LEV^R RIF^S",0.015 µg/mL
same,MIC,"[4]; strain 3271, LEV^R RIF^S",0.015 µg/mL
same,MIC,"[4]; strain 3277, LEV^S RIF^S",0.015 µg/mL
same,MIC,"[4]; strain 3278, LEV^S RIF^S",0.015 µg/mL
same,MIC,"[4]; strain 6312, LEV^R RIF^S",0.015 µg/mL
same,MIC,"[4]; strain 6313, LEV^R RIF^S",0.015 µg/mL
same,MIC,"[4]; strain 6315, LEV^R RIF^S",0.015 µg/mL
same,MIC,"[4]; strain 6498, LEV^R RIF^S",0.015 µg/mL
same,MIC,"[4]; strain 6501, LEV^R RIF^S",0.015 µg/mL
same,MIC,"[4]; strain 6505, LEV^R RIF^S",0.015 µg/mL
same,MIC,"[4]; strain 7771, LEV^R RIF^S",0.015 µg/mL
same,MIC,"[4]; strain 7772, LEV^S RIF^S",0.015 µg/mL
same,MIC,"[4]; strain 7773, LEV^R RIF^S",0.015 µg/mL
same,MIC,"[4]; strain 7774, LEV^R RIF^S",0.015 µg/mL
same,MIC,"[4]; strain 7775, LEV^R",0.015 µg/mL
